The source of these data is patent US20240366594A1, “Small Molecule Inhibitors of Formation of Neutrophil-Derived Extracellular Traps (NETosis) and Uses Thereof” (The Brigham and Women's Hospital, Inc., priority 2021, published 2024).

In one assay the test system is Murine neutrophils. In words: NET induction in response to nigericin in murine neutrophils. As to conditions: nigericin for 3 hours; FIG. 5E. Also on record: dose or concentration left out as unconfirmed. It counts as cell-based, mouse. How it is done:
(§1) FIGS. 5A-J. Class I/II HDACs drive NET formation. • A) Quantification of extracellular DNA released by neutrophils treated, or not, with 1 μM GSK484 for 1 h and then stimulated with 1 μM PMA for 4 hours. Unstimulated, neutrophils not treated with drugs were used as a control. • B) Freshly purified human neutrophils were treated with the indicated HDAC inhibitors at different doses (0.08, 0.4, 2 and 10 μM) for 1 hour. Extracellular DNA release was assessed in the supernatant 3 hours after PMA stimulation. The dotted line represents the amount of DNA released from neutrophils treated with PMA alone. […] NETosis induction was measured as level of anti-CitH3 fluorescent signal. […] NET induction was measured as in (C). […] NETosis induction was measured as level of anti-CitH3 fluorescent signal. […] NET induction was measured as in (F). • H, I) Freshly isolated neutrophils from two different donors were treated with different doses of ricolinostat, citarinostat (10, 2, 0.4, 0.08 μM) or GSK484 (10, 5, 2 μM) for 1 h and then stimulated with 1 μM PMA. NET induction was measured as level of anti-CitH3 fluorescent signal (H) and by microscopy as number of cells positive for CitH3 signal per field of view (FOV) (I). […] NET induction was measured as level of anti-CitH3 fluorescent signal. […] Statistics were calculated using One-way ANOVA (A, E, I) and Two-way ANOVA (B, F, G, H, L). […]

The subject of assay [1] is neutrophils that lack HDAC6. Description: NET induction in PMA-stimulated neutrophils from HDAC6KO mice. It is filed as cell-based, mouse. To be noted: ricolinostat 10, 2, 0.4, 0.08 μM, then PMA; FIG. 5G. The method, then:
as §1

As to `O=C(CCCCCCNC(=O)c1cnc(N(c2ccccc2)c2ccccc2)nc1)NO` [ricolinostat], the “NET induction in response to nigericin (anti-CitH3 signal)” value in the assay on Murine neutrophils was “inhibited NET induction”. Besides, the “NET induction in HDAC6-lacking neutrophils” value in assay [1] is recorded as “remained sensitive”.
